Experimental data: patent US12448383B2, “Compounds and methods for treatment of viral infections” (priority 2022, dated 2025)

Key:
[1] = test system: Respiratory syncytial virus recombinant with luciferase (RSV-Luc5) in HEp-2 cells; test: microbe, parasite or virus in culture; format: cell-based; conditions: human respiratory syncytial virus, HEp-2, 72 h, read-out: RSV Hep2 EC50
[2] = test system: SARS Coronavirus 2 recombinant with NanoLuc (SARS-CoV2-NLuc) in A549-hACE2 cells; test: organism not typed; format: cell-based; conditions: 48 h; read-out: SARS-CoV2 EC50
[3] = test system: Respiratory syncytial virus recombinant with luciferase (RSV-Luc5) in Normal Human Bronchial Epithelial (NHBE) cells; test: microbe, parasite or virus in culture; format: cell-based; conditions: 72 h, read-out: RSV NHBE EC50
[4] = CC50 MT4 cytotoxicity (Cell-Titer Glo); format: cell-based; conditions: human
Method: Cytotoxicity of the compounds was determined in uninfected cells using the cell viability reagent in a similar fashion as described before for other cell types (Cihlar et al., Antimicrob Agents Chemother. 2008, 52(2):655-65). HEp-2 (1.5×10^3 cells/well) and MT-4 (2×10^3 cells/well) cells were plated in 384-well plates and incubated with the appropriate medium containing 3-fold serially diluted compound ranging from 15 nM to 100,000 nM. Cells were cultured for 4-5 days at 37° C. Following the incubation, the cells were allowed to equilibrate to 25° C., and cell viability was determined by adding Cell-Titer Glo viability reagent. The mixture was incubated for 10 min, and the luminescence signal was quantified using an Envision plate reader. Untreated cell and cells treated at 2 μM puromycin (Sigma, St. Louis, MO) serve as 100% and 0% cell viability control, respectively. The percent of cell viability was calculated for each tested compound concentration relative to the 0% and 100% controls and the CCso value was determined by non-linear regression as a compound concentration reducing the cell viability by 50%.

[5] = test system: Caco-2 cells (clone C2BBe1); test: CACO-2 permeability; format: in vitro ADME; set-up: unit not given here; conditions: for DM Caco2 A to B: apical to basolateral, donor pH 6.5, receiver pH 7.4; for DM Caco2 B to A: basolateral to apical
Method: Pre-plated Caco-2 cells (clone C2BBel) were obtained from Sigma-Aldrich, Inc. (Atlanta, GA). Cell monolayers were grown to confluence on collagen-coated, microporous, polycarbonate membranes in 24-well transwell plates for 21 days. The permeability assay buffer in donor wells was Hanks' balanced salt solution (HBSS) containing 10 mM HEPES and 15 mM glucose at a pH of 6.5 containing 200 μM BNPP. The receiver wells used HBSS buffer containing 10 mM HEPES and 15 mM glucose at a pH of 7.4 and supplemented with 1°% BSA. After an initial equilibration with transport buffer, TEER values were read to test membrane integrity. The experiment was started by the addition of buffers containing test compounds, 200 μl and 1000 μl in the apical and basolateral chamber, respectively. At 0- and 2-hour post dose, 10 μL was sampled from donor compartment and was immediately diluted in 190 μL of 20% methanol. At 1 and 2 hours post dose, 100 μl of solution was taken from the receiver compartments and was immediately diluted in 100 μl of 20% methanol. Removed buffer was replaced with fresh buffer and a correction was applied to all calculations for the removed material. Each compound was tested in 2 separate replicate wells for each condition. All samples were then extracted with 400 μl 100% acetonitrile with internal standard to precipitate protein. Cells were dosed on the apical or basolateral side to determine forward (A to B) and reverse (B to A) permeability. To test for non-specific binding and compound instability, the total amount of drug was quantitated at the end of the experiment and compared to the material present in the original dosing solution as a percent recovery. […] Samples were analyzed by LC-MS/MS.

[6] = GI S9 stability - no PMSF; format: in vitro ADME; conditions: pH 7.4; human intestinal S9, PMSF-free; read-out: GIS9-HUMAN-NoPMSF T1/2
Method: Duplicate aliquots of test compound or positive control substrate (GS-7340) were added to S9 stock diluted with 100 mM phosphate buffered saline, pH 7.4, to obtain a protein concentration of 1.0 mg/mL. The S9 metabolic reactions were initiated by the addition of the substrates to the S9 reaction mixture to a final concentration of 2 μM. At 0, 10, 20, 30, 60 and 120 min, […] aliquots of the reaction mixture were transferred to plates containing […] of IS/Q solution. After quenching, the plates were centrifuged at 3000 g for 30 minutes, and 150 μL aliquots of each supernatant were diluted with 150 μL water. Aliquots ([…]) of the diluted supernatant were analyzed on a Thermo Q-Exactive mass spectrometer as described below. GI S9 Stability—No phenylmethylsulfonyl fluoride (PMSF): Similar to the procedure described above, test compounds were incubated at 2 μM with 1 mg/mL PMSF-free Intestinal S9 fractions. Samples are removed at 6 time points over the course of a 120 min experiment and the parent compound disappreance and reference compound A formation is determined by mass spectrometry.
Example K: Liquid Chromatography/Mass Spectroscopy Methods for S9 and Plasma Stability
Quantification of test compounds, Reference Compound A (S9 stability assay nucleoside metabolite), and controls was performed by analyte/internal standard peak area ratio (PAR) values measured on a Thermo Q-Exactive mass spectrometer coupled to a Dionex UltiMate 3000 HPLC with a Leap Technologies HTC PAL autosampler. The column used for analysis of test compounds and Reference Compound A was a Waters Acquity BEH C18 ([…] particle size, 2.1′50 mm). The column used for control (GS-7340) was a Thermo Hypersil GOLD ([…] particle size, 2.1′50 mm). Mobile phase A consisted of 0.1% (v/v) formic acid in water. Mobile phase B consisted of 0.1% (v/v) formic acid in acetonitrile. Elution of analytes was achieved by a series of linear gradients of acetonitrile in water containing 0.1°(v/v) formic acid. The mass spectrometer was calibrated on a weekly basis and mass tolerance of 5 ppm was used.

[7] = Plasma stability; format: in vitro ADME; set-up: unit not given here; conditions: 37° C., 2 μM substrate
Method: At 0.05, 0.5, 1, 2, 3 and 4 hr, […] aliquots of the reaction mixture were transferred to plates containing […] of IS/Q quenching solution. After quenching, the plates were centrifuged at 3000 g for 30 minutes, and 150 μL supernatant was diluted with 150 μL water. Aliquots ([…]) of the diluted supernatant were analyzed on a Thermo Q-Exactive mass spectrometer as described below.
Mobile phase A consisted of 0.1% (v/v) formic acid in water. Mobile phase B consisted of 0.1% (v/v) formic acid in acetonitrile. Elution of analytes was achieved by a series of linear gradients of acetonitrile in water containing 0.1°(v/v) formic acid. The mass spectrometer was calibrated on a weekly basis and mass tolerance of 5 ppm was used.

Compound	EC50 [1]	EC50 [2]	EC50 [3]	CC50 [4]	DM Caco2 A to B [5]	DM Caco2 B to A [5]	half-life at 2 µM [6]	STA Human Plasma 37 [7]
CC(C)(C)COC(=O)OC[C@H]1O[C@@](C#N)(c2ccc3c(=N)n(COP(=O)(O)OCc4ccccc4)cnn23)[C@H](O)[C@@H]1O [Compound 18, ((2R,3S,4R,5R)-5-(3-((((benzyloxy)(hydroxy)phosphoryl)oxy)methyl)-4-imino-3,4-dihydropyrrolo[2,1-f][1,2,4]triazin-7-yl)-5-cyano-3,4-dihydroxytetrahydrofuran-2-yl)methyl neopentyl carbonate]	2.87 µM	12.4 µM	12.1 µM	> 50 µM				
N#C[C@@]1(c2ccc3c(N)ncnn23)O[C@H](COC(=O)OC2CNC2)[C@@H](O)[C@H]1O [Compound 20, ((2R,3S,4R,5R)-5-(4-aminopyrrolo[2,1-f][1,2,4]triazin-7-yl)-5-cyano-3,4-dihydroxytetrahydrofuran-2-yl)methyl azetidin-3-yl carbonate]	2.02 µM	8.98 µM	4.35 µM	> 50 µM				
Cc1oc(=O)oc1COC(=O)OC[C@H]1O[C@@](C#N)(c2ccc3c(N)ncnn23)[C@H](O)[C@@H]1O [Compound 26, ((2R,3S,4R,5R)-5-(4-aminopyrrolo[2,1-f][1,2,4]triazin-7-yl)-5-cyano-3,4-dihydroxytetrahydrofuran-2-yl)methyl ((5-methyl-2-oxo-1,3-dioxol-4-yl)methyl) carbonate]	0.942 µM	2.39 µM	0.844 µM	> 50 µM	0.07	0.36	29.2 s	33.7
CCCCCOC(=O)OC[C@H]1O[C@@](C#N)(c2ccc3c(N)ncnn23)[C@H](O)[C@@H]1O [Compound 27, ((2R,3S,4R,5R)-5-(4-aminopyrrolo[2,1-f][1,2,4]triazin-7-yl)-5-cyano-3,4-dihydroxytetrahydrofuran-2-yl)methyl pentyl carbonate]	0.145 µM	0.658 µM	1.01 µM	> 50 µM				
N#C[C@@]1(c2ccc3c(N)ncnn23)O[C@H](COC(=O)OC2CC3(CCC3)C2)[C@@H](O)[C@H]1O [Compound 29, ((2R,3S,4R,5R)-5-(4-aminopyrrolo[2,1-f][1,2,4]triazin-7-yl)-5-cyano-3,4-dihydroxytetrahydrofuran-2-yl)methyl spiro[3.3]heptan-2-yl carbonate]	0.109 µM	0.835 µM	1.3 µM	> 50 µM	1.91	12.29	37 s	139
CC1(C)CC(OC(=O)OC[C@H]2O[C@@](C#N)(c3ccc4c(N)ncnn34)[C@H](O)[C@@H]2O)C1 [Compound 31, ((2R,3S,4R,5R)-5-(4-aminopyrrolo[2,1-f][1,2,4]triazin-7-yl)-5-cyano-3,4-dihydroxytetrahydrofuran-2-yl)methyl (3,3-dimethylcyclobutyl) carbonate]	0.322 µM	1.08 µM	0.803 µM	> 50 µM	0.68	13	51.4 s	32.4
N#C[C@@]1(c2ccc3c(N)ncnn23)O[C@H](COC(=O)OC2CCCCC2)[C@@H](O)[C@H]1O [Compound 35, ((2R,3S,4R,5R)-5-(4-aminopyrrolo[2,1-f][1,2,4]triazin-7-yl)-5-cyano-3,4-dihydroxytetrahydrofuran-2-yl)methyl cyclohexyl carbonate]	0.651 µM	1.91 µM	1.01 µM	> 50 µM	0.95	10.64	35.6 s	139.6
N#C[C@@]1(c2ccc3c(N)ncnn23)O[C@H](COC(=O)OC2CCOCC2)[C@@H](O)[C@H]1O [Compound 50, ((2R,3S,4R,5R)-5-(4-aminopyrrolo[2,1-f][1,2,4]triazin-7-yl)-5-cyano-3,4-dihydroxytetrahydrofuran-2-yl)methyl (tetrahydro-2H-pyran-4-yl) carbonate]	1.92 µM	20.4 µM	1.37 µM	> 50 µM	0.13	2.76	914 s	430.4
N#C[C@@]1(c2ccc3c(N)ncnn23)O[C@H](COC(=O)OCC2CCCC2)[C@@H](O)[C@H]1O [Compound 85, ((2R,3S,4R,5R)-5-(4-aminopyrrolo[2,1-f][1,2,4]triazin-7-yl)-5-cyano-3,4-dihydroxytetrahydrofuran-2-yl)methyl (cyclopentylmethyl) carbonate]	0.166 µM	0.417 µM	0.776 µM	> 50 µM			37.3 s	38.6
N#C[C@@]1(c2ccc3c(N)ncnn23)O[C@H](COC(=O)OCC2CCCCC2)[C@@H](O)[C@H]1O [Compound 86, ((2R,3S,4R,5R)-5-(4-aminopyrrolo[2,1-f][1,2,4]triazin-7-yl)-5-cyano-3,4-dihydroxytetrahydrofuran-2-yl)methyl (cyclohexylmethyl) carbonate]	0.371 µM	0.623 µM	1.22 µM	> 50 µM			41 s	48.6
CC[C@@H](C)OC(=O)OC[C@H]1O[C@@](C#N)(c2ccc3c(N)ncnn23)[C@H](O)[C@@H]1O [Compound 89, ((2R,3S,4R,5R)-5-(4-aminopyrrolo[2,1-f][1,2,4]triazin-7-yl)-5-cyano-3,4-dihydroxytetrahydrofuran-2-yl)methyl ((R)-sec-butyl) carbonate]	0.665 µM	2.69 µM	0.978 µM	> 50 µM			35.4 s	188.5
